Reference: article PMC7532663, “Pharmacological inhibition of mTORC1 increases CCKBR-specific tumor uptake of radiolabeled minigastrin analogue [^177Lu]Lu-PP-F11N” (Theranostics, 2020)
Several values for one entry are separate records, joined by “and”; a condition that tells them apart may be missing. Equal values may be shown once.

How the values were obtained:
[1] = clinical study; cited from earlier work
From the text: Overexpression of G-protein coupled receptors (GPCRs) that selectively bind their peptide ligands allowed the development of the peptide receptor radionuclide therapy (PRRT) for human cancers. One of the most important properties of PRRT is a high uptake ratio of tumor-to-healthy-tissue in terms of radiolabeled ligands. Consequently, the molecular strategies which increase uptake of radiopharmaceuticals selectively in cancer tissue while sparing healthy organs from cytotoxic side effects have huge potential to improve PRRT efficacy. Activated GPCRs by agonistic ligand-based radiotherapeuti ...

in vivo = conditions: female, CD-1 nude, mouse, iv, 3 pmol, total radioactivity, Uptake [% i.A./g], PBS group, control PBS-treated mice, 3 pmol i.v., 4 h post injection, mean
AR42J cells [2] = format: cell-based, rat
From the text: (§1) […]. […] […].

A431 cells = assay: Total protein concentration of cell lysates; format: cell-based, human; conditions: 100 nM RAD001
From the text: as §1

A431/CCKBR cells [3] = assay: Total protein concentration of cell lysates; format: cell-based, human; conditions: 100 nM RAD001 or 10 mM metformin, 20 h
From the text: as §1

AR42J cells [4] = assay: Total protein concentration of cell lysates; format: cell-based, rat; conditions: 100 nM RAD001
From the text: as §1

[5] = test system: mTORC1-regulated phosphorylation of the ribosomal protein S6 at Ser235/236; assay: WB analysis of phospho-S6; format: cell-based, human
Procedure: (§2) Antibodies against phospho-S6 at S235/S236 (D57.2.2F), ERK1/2 (9102), phospho-ERK1/2 (T202/Y204), GAPDH (14C10) and HA-Tag (C29F4) were obtained from Cell Signaling Technology, whereas the anti-CCKBR (ab77077) was from Abcam. Cells were homogenized in lysis buffer (50 mM Tris-HCl pH 7.5, 150 mM NaCl, 1% Triton X, 0.1% SDS supplemented with 1 mM sodium orthovanadate, 1 mM NaF and protease inhibitor cocktail (Roche)). 50 μg of total protein lysates were separated by SDS-PAGE and transferred to PVDF membranes (Millipore) by electroblotting. Membranes were blocked with 5% skim milk in TBST (0.1% Tween 20) for 1 h, and incubated with 2% BSA in TBST overnight with the primary antibody followed by 2 h incubation with HRP-conjugated secondary antibody. Signals were produced by using a chemiluminescence reagent (ECL) and acquired by ImageQuant RT ECL Imager (GE Healthcare). Prior to CCKBR detection by WB, protein lysates were subjected to deglycosylation. Briefly, 18 μL of total protein lysates (50 µg) were mixed with 2 μL of 10× denaturing buffer (5% SDS, 0.4 M DTT) and incubated for 10 min at RT. Next, 4 μL of 10× Glycobuffer (0.5 M sodium phosphate, pH 7.5), 4 μL of 10% Tween-20 and 10 μL of water were added. Finally, 2 μL of PNGase F (Sigma) was added and the reaction was carried out for 16 h at 37°C.

CCKBR = assay: WB analysis of CCKBR protein level in deglycosylated lysates; format: cell-based, human; conditions: 50 or 100 nM RAD001, 20 h; A431/CCKBR; CCKBR/GAPDH
Procedure: as §2

[6] = test system: β-arrestin-1 recruitment to CCKBR; assay: Split luciferase arrestin recruitment assay; format: cell-based, human; conditions: RAD001 20 h, then 1 µM PP-F11N
[7] = test system: β-arrestin-2 recruitment to CCKBR; assay: Split luciferase arrestin recruitment assay; format: cell-based, human; conditions: RAD001 20 h, then 1 µM PP-F11N
A431/CCKBR cells [8] = assay: Hoechst fluorescence cell number control; format: cell-based, human; conditions: RAD001 pretreatment 20 h
[9] = test system: A431/CCKBR-tumor bearing nude mice; assay: Tumor volume, mouse weight and toxicity during treatment; format: in vivo
A431/CCKBR tumors = assay: HE staining and immunohistochemistry of tumor sections; format: in vivo, mouse
Procedure: Formalin-fixed, paraffin tumor sections were deparaffinized, rehydrated and pretreated in 10 mM citrate buffer, pH 6.0, at 98 °C for 60 minutes, followed by incubation with 4% fat-free milk in PBS for 90 minutes. For avidin/biotin blocker treatment (Invitrogen) and detection, the ABC method was used. For monoclonal antibody against Ki67 (SP6, Thermo Scientific) and CD34 (cloneQBend/10; Dako) signals were recorded using an automated instrument reagent system (Discovery XT, Ventana Medical System Inc.). Images of hematoxylin-counterstained sections were captured (Nikon, YTHM) and analyzed using ImageAccess Enterprise7 and ImageJ software. Tumor necrotic areas and vascularization were analyzed in 10 (RAD001 and PBS) and 8 (metformin) images, whereas Ki67 and mitotic index in 15 (RAD001 and PBS) and 12 (metformin) images.

A431/CCKBR cells [10] = conditions: 100 nM RAD001 or 10 mM metformin
Procedure: Radioactive medium (and PBS wash) was collected and the cells were washed 2× with glycine buffer (pH=2) for 5 min at RT followed by a dissolving step in 1 M NaOH for 15 min at 37°C. All 3 fractions (medium/PBS; glycine; dissolved cells) were measured on Cobra II Auto-Gamma counter (Packard). For the cell uptake analysis, the PBS-washed cells were directly dissolved in 1M NaOH, or combined glycine-wash and 1M NaOH dissolved cells, were measured on the Gamma counter. […] Protein concentration of cell lysates was measured by using NanoPhotometer® UV-Vis P-Class (Implen).

[11] = test system: A431/CCKBR-tumor bearing nude mice

## CCCC[C@H](NC(=O)[C@H](Cc1c[nH]c2ccccc12)NC(=O)CNC(=O)[C@H](Cc1ccc(O)cc1)NC(=O)[C@H](C)NC(=O)[C@@H](CCC(=O)O)NC(=O)[C@@H](CCC(=O)O)NC(=O)[C@@H](CCC(=O)O)NC(=O)[C@@H](CCC(=O)O)NC(=O)[C@@H](CCC(=O)O)NC(=O)[C@@H](CCC(=O)O)NC(=O)CN1CCN(CC(=O)O)CCN(CC(=O)O)CCN(CC(=O)O)CC1)C(=O)N[C@@H](CC(=O)O)C(=O)N[C@@H](Cc1ccccc1)C(N)=O [[^177Lu]Lu-PP-F11N, [^177Lu]Lu-DOTA-(DGlu)6-Ala-Tyr-Gly-Trp-Nle-Asp-Phe-NH2, metal not drawn]
[1]
  median tumor-to-kidney dose ratio: 11.6
  tumor-to-stomach dose ratio: 3.34
In vivo; Blood
  tissue uptake at 4 h: 0.043 %ID/g
In vivo; Bone
  tissue uptake at 4 h: 0.37 %ID/g
In vivo; Brain
  tissue uptake at 4 h: 0.03 %ID/g
In vivo; Intestines
  tissue uptake at 4 h: 0.23 %ID/g
In vivo; Kidney
  tissue uptake at 4 h: 3.07 %ID/g
In vivo; Liver
  tissue uptake at 4 h: 0.17 %ID/g
In vivo; Lung
  tissue uptake at 4 h: 0.08 %ID/g
In vivo; Pancreas
  tissue uptake at 4 h: 0.12 %ID/g
In vivo; Spleen
  tissue uptake at 4 h: 0.1 %ID/g
In vivo; Stomach
  tissue uptake at 4 h: 1.01 %ID/g
In vivo; Tumor, n=6
  tissue uptake at 4 h: 10.9 %ID/g

## CO[C@H]1C[C@@H]2CC[C@@H](C)[C@@](O)(O2)C(=O)C(=O)N2CCCC[C@H]2C(=O)O[C@H]([C@H](C)C[C@@H]2CC[C@@H](OCCO)[C@H](OC)C2)CC(=O)[C@H](C)/C=C(\C)[C@@H](O)[C@@H](OC)C(=O)[C@H](C)C[C@H](C)/C=C/C=C/C=C/1C [RAD001, Everolimus]
AR42J cells [2]
  internalization ratio [RAD001/control]: 1.7
AR42J cells [2]; 100 nM RAD001
  [177Lu]Lu-PP-F11N internalization in treated cells: 10%
A431 cells
  total protein level compared to control: 79%
A431/CCKBR cells [3]
  total protein level compared to control: 79%
AR42J cells [4]
  total protein level compared to control: 84%
[5]; 20 h incubation with 50, 100 and 200 nM RAD001, A431/CCKBR
  S6 phosphorylation (WB): inhibited S6 phosphorylation
[5]; A431/CCKBR cells, 100 nM RAD001 or 10 mM metformin
  phosphorylation of S6 at Ser235/236 (WB): lack of mTORC1-regulated phosphorylation
CCKBR
  increase of CCKBR level: 2.2 fold
[6]
  effect of RAD001 on β-arrestin-1 recruitment: no difference
[7]
  effect of RAD001 on β-arrestin-2 recruitment: no difference
A431/CCKBR cells [8]
  cell number by Hoechst fluorescence: significantly reduced cell number
[9]; 3 daily doses
  mouse weight: without influencing overall mouse weight
  tumor volume: significantly reduced tumor volumes
[9]; 5 days daily treatment
  mouse weight: without influencing overall mouse weight
  tumor volume: significantly reduced tumor volumes
A431/CCKBR tumors; 5 days treatment, mean ± SD
  mitotic index: 0.75% and 0.75 ± 0.36%
A431/CCKBR tumors; HE and CD34, five-day treatment
  tumor vascularization: No significant difference
A431/CCKBR tumors; HE stain, 5 days treatment, mean ± SD
  necrosis (necrotic area): 10.6 ± 6.4%
A431/CCKBR tumors; IHC, 5 days treatment, mean ± SD
  Ki67 positive cells: 61% and 61 ± 8.6%
A431/CCKBR cells [10]; 20 h
  internalization ratio [treatment/control]: 1.5
A431/CCKBR cells [10]; 20 h treatment, 0.3 pmol radioligand 1 h, triplicate
  [177Lu]Lu-PP-F11N internalization in treated cells: 24.3%
[11]; three doses of metformin or one RAD001 dose
  influence on [177Lu]Lu-PP-F11N tumor uptake: only moderately and did not reach statistical significance
[11]; tumors ranging from 50-150 or 50-180 mg
  [177Lu]Lu-PP-F11N uptake in tumors of matching sizes: statistically significant increase
